The source of these data is US20230338307A1, “PROPHYLACTIC AGENT, AMELIORATING AGENT, AND THERAPEUTIC AGENT FOR DRY EYE” (TSUBOTA LABORATORY, INC., priority 2020, published 2023).

The subject of data set [1] is dry eye model. Put plainly: Fluorescein staining score, 0.2% benzalkonium chloride dry eye model, Comparative Study 2 (Example 5). Type of data set: in vivo, mice. Conditions: two days after start, compared with control; 0.03% apocynin, 0.5% (w/v) hyaluronic acid or 3% diquafosol sodium twice a day; FIG. 11A. The text has this:
After acclimating male C57BL6 mice (7 weeks old) to the experimental environment, those with almost uniform weight values and no eye abnormalities were divided into the following groups (n=3 to 4). • 7 weeks old/normal (non-dry eye group) • 7 weeks old/dry eye model+control (solvent eye drop) group • 7 weeks old/dry eye model+0.003% (w/v) apocynin eye drop group • 7 weeks old/dry eye model+0.03% (w/v) apocynin eye drop group • 7 weeks old/dry eye model+3% diquafosol sodium eye drop group • 7 weeks old/dry eye model+0.5% (w/v) hyaluronic acid eye drop group A dry eye model was created by instilling 3 μL of the 0.2% benzalkonium chloride solution into each of both eyes twice a day for 8 days. Then, the control group received PBS alone, and the test group received 0.003% (w/v), 0.03% (w/v) apocynin and 0.5% (w/v) hyaluronic acid in PBS. The 3% diquafosol sodium eye drop was instilled into each of both eyes at 3 μL, twice a day for 9 days. In Example 5, 1, 2, 5, and 9 days after the start of instillation of the comparative test drug, 1 μL of 0.1% sodium fluorescein solution was instilled into each of both eyes. Fluorescein-stained images were observed under a blue filter using a slit lamp (Kowa Co., Ltd., SL-17), and the degree of corneal epithelial damage was scored.

The conditions of data set [2]: reported for dry eye treatment; cited from earlier work.
Data set [3] deals with dry eye model. Put plainly: Fluorescein staining score, benzalkonium chloride dry eye model, Comparative Study 1 (Example 4). Format: in vivo, mice. Conditions: 3 days after start of instillation, compared to control; 0.1% (w/v) apocynin or 0.5% (w/v) hyaluronic acid twice a day; FIG. 9A. The procedure:
After acclimating male C57BL6 mice (7 weeks old) to the experimental environment, those with almost uniform weight values and no eye abnormalities were divided into the following groups (n=4). • 7 weeks old/normal (non-dry eye group) • 7 weeks old/dry eye model+control (solvent eye drop) group • 7 weeks old/dry eye model+0.1% (w/v) apocynin eye drop group • 7 weeks old/dry eye model+0.5% (w/v) hyaluronic acid eye drop group A dry eye model was prepared by instilling the benzalkonium chloride solution at 3 μL each eye, twice a day for 8 days. After that, the control group received the 0.5% methylcellulose solution alone, and the test group received 0.1% (w/v) apocynin or 0.5% (w/v) hyaluronic acid suspended in the 0.5% methylcellulose solution twice a day for 15 days at 3 μL for each of both eyes. In Example 4, 1, 3, 6, 8, and 15 days after the start of instillation of the comparative test drug, 1 μL of the 0.1% fluorescein sodium solution was instilled into each of both eyes. Fluorescein-stained images were observed under a blue filter using a slit lamp (Kowa Co., Ltd., SL-17), and the degree of corneal epithelial damage was scored.

With `O=c1ccn([C@@H]2O[C@H](COP(=O)(O)OP(=O)(O)OP(=O)(O)OP(=O)(O)OC[C@H]3O[C@@H](n4ccc(=O)[nH]c4=O)[C@H](O)[C@@H]3O)[C@@H](O)[C@H]2O)c(=O)[nH]1` [diquafosol sodium, reference compound], the “fluorescein staining score (corneal epithelial damage)” value in data set [1] is “no effect was observed”. Besides, the “side effect specific to ingredients” value in data set [2] was “causes ocular discharge and eye pain”.
For the compound `O=C(NC(Cc1cc(=O)[nH]c2ccccc12)C(=O)O)c1ccc(Cl)cc1` (centres unmarked) [rebamipide], the “side effect specific to ingredients” value in data set [2] is on record as “causes dysgeusia”.
Regarding hyaluronic acid [reference compound], in data set [3], the “fluorescein staining score (corneal damage)” value is recorded as “no effect was observed”. Besides, the “fluorescein staining score (corneal epithelial damage)” value in data set [1] was “no effect was observed”.
